# Results from ChEMBL document CHEMBL5113377, “Development of Selective FXIa Inhibitors Based on Cyclic Peptides and Their Application for Safe Anticoagulation” (J Med Chem, 2021).
# *1 amine or outer side, *2 acyl side, *3 side chain or, on linkers, in order; H or OH if unused. Where a SMILES comes first, the peptide text is derived from it. Bridges are numbered along the chain shown (N, C = ends). CH2COCH2 = O=C(C[*:1])C[*:2]; X1 = C(=C\C[*:2])/C[*:1]
# Columns and labels:
# Coagulation factor XI = Coagulation factor XI (Homo sapiens, UniProt P03951); assay: Inhibition of biotinylated human FXIa assessed as inhibition of p-nitroaniline release using Pyr-Pro-Arg-pNA as substrate measured for 20 mins
# Plasma [1] = assay: Anticoagulant activity in CaCl2-activated human plasma assessed as prolongation of activated partial thromboplastin time; type: functional
# Plasma [2] = assay: Anticoagulant activity in CaCl2-activated human plasma assessed as concentration required to achieve 1.6 fold prolongation of activated partial thromboplastin time; type: functional
# Plasma [3] = assay: Anticoagulant activity in CaCl2-activated human plasma assessed as concentration required to achieve 5.1 fold prolongation of activated partial thromboplastin time; type: functional
# Blood [4] = assay: Anticoagulant activity in human blood assessed as concentration required to achieve the effects achieved with minimal therapeutic dose of UFH for prolongation of aPTT; type: functional
# Plasma [5] = assay: Anticoagulant activity in CaCl2-activated human plasma assessed as fold prolongation of activated partial thromboplastin time at 30 uM relative to control; type: functional
# Blood [6] = assay: Anticoagulant activity in human whole blood assessed as activated clotting time; type: functional
# [7] = Stability in human plasma assessed as half life at 40 uM measured for 48 hrs; type: ADME, cell-free
# Plasma [8] = assay: Anticoagulant activity in rabbit plasma assessed as prolongation of activated partial thromboplastin time; type: functional, Oryctolagus cuniculus
# Homo sapiens [9] = species on record: Homo sapiens; assay: Selectivity for biotinylated human FXIa over beta-FXIIa (unknown origin)
# Homo sapiens [10] = species on record: Homo sapiens; assay: Selectivity for biotinylated human FXIa over trypsin (unknown origin)
# Homo sapiens [11] = species on record: Homo sapiens; assay: Selectivity for biotinylated human FXIa over tPA (unknown origin)
# Homo sapiens [12] = species on record: Homo sapiens; assay: Selectivity for biotinylated human FXIa over uPA (unknown origin)
# Homo sapiens [13] = species on record: Homo sapiens; assay: Selectivity for biotinylated human FXIa over thrombin (unknown origin)
# Homo sapiens [14] = species on record: Homo sapiens; assay: Selectivity for biotinylated human FXIa over plasma kallikrein (unknown origin)
# Homo sapiens [15] = species on record: Homo sapiens; assay: Selectivity for biotinylated human FXIa over plasmin (unknown origin)
# Coagulation factor XI, sequence (P03951 19-387 limits assumed): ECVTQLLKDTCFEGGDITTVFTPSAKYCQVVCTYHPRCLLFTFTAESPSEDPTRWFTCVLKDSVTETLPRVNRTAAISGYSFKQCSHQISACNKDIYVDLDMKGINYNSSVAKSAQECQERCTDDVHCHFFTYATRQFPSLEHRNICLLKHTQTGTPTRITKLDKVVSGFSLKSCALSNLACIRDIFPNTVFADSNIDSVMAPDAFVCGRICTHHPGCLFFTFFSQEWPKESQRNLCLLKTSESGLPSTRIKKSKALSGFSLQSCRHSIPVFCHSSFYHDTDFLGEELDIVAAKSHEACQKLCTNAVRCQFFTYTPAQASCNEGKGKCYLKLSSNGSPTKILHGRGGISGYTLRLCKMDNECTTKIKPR
# Coagulation factor XI, sequence (P03951 388-625 limits assumed): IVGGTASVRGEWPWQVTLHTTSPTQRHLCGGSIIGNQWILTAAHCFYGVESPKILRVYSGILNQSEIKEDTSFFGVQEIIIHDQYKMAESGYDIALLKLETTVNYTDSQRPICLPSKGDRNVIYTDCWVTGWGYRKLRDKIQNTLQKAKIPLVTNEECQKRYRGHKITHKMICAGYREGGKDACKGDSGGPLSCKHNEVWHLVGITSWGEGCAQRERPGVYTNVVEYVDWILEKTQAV
Ki (Coagulation factor XI),SMILES,EC2 (Plasma [1]),fold change (FC) (Plasma [5]),also measured
2.8 nM,CC[C@H](C)[C@@H]1NC(=O)[C@H](CCCNC(=N)N)NC(=O)[C@H]([C@@H](C)O)NC(=O)[C@H](CC(C)C)NC(=O)[C@H](C)NC(=O)[C@H](CO)NC(=O)[C@@H](NC(=O)[C@H](CCCNC(=N)N)NC(=O)[C@H](CCCNC(=N)N)NC(=O)[C@@H](NC(=O)[C@H](C)NC(=O)[C@@H](N)CCCNC(=N)N)C(C)C)CSSC[C@@H](C(=O)N2CCC[C@H]2C(=O)O)NC(=O)[C@H](C(C)C)NC1=O (H-RAVRRCSALTRIVCP-OH; disulfide 6-14),1.5 µM,–,Activity (Plasma [2]): 0.34 µM; Activity (Plasma [3]): 45 µM; Activity (Blood [4]): 0.77 µM
7.7 nM,"CC(C)C[C@H](NC(=O)[C@@H](NC(=O)[C@@H]1CSC/C=C/CSC[C@H](NC(=O)[C@@H](N)CCC(=O)O)C(=O)N[C@@H](CCCCN)C(=O)N[C@@H]([C@@H](C)O)C(=O)N2CCC[C@H]2C(=O)N[C@@H](CCCNC(=N)N)C(=O)N[C@@H](CCC(=O)O)C(=O)N1)[C@@H](C)O)C(=O)N[C@H](C(=O)N[C@@H](CCCNC(=N)N)C(=O)N[C@H]1CSC/C=C/CSC[C@@H](C(=O)N[C@@H](CCC(=O)O)C(=O)O)NC(=O)[C@H](CO)NC(=O)[C@H](Cc2cnc[nH]2)NC(=O)[C@H](C(C)C)NC1=O)[C@@H](C)O (H-ECKTPRECTLTRCVHSCE-OH; linker 2-8, 13-17 via X1)",–,2,–
2.4 nM,CC[C@H](C)[C@@H]1NC(=O)[C@H](CCCNC(=N)N)NC(=O)[C@H]([C@@H](C)O)NC(=O)[C@H](CC(C)C)NC(=O)[C@H](C)NC(=O)[C@H](CO)NC(=O)[C@@H](NC(=O)[C@H](CCCNC(=N)N)NC(=O)[C@H](CCCNC(=N)N)NC(=O)[C@@H](NC(=O)[C@H](C)NC(=O)[C@H](CCCNC(=N)N)NC(=O)[C@H](CO)NC(=O)[C@H](CO)NC(=O)[C@@H](N)CCC(N)=O)C(C)C)CSSC[C@@H](C(=O)N2CCC[C@H]2C(=O)O)NC(=O)[C@H](C(C)C)NC1=O (H-QSSRAVRRCSALTRIVCP-OH; disulfide 9-17),3.1 µM,–,–
62 nM,"CC(C)C[C@@H]1NC(=O)CNC(=O)[C@H](CCC(N)=O)NC(=O)[C@@H](NC(=O)[C@@H](N)CCCNC(=N)N)CSCC(=O)CSC[C@@H](C(=O)N[C@@H](Cc2ccccc2)C(=O)N[C@H](C(=O)N[C@@H](CO)C(=O)N[C@@H](CC(N)=O)C(=O)N[C@@H](CCCCN)C(=O)N[C@@H](Cc2ccc(O)cc2)C(=O)N[C@H]2CSCC(=O)CSC[C@@H](C(=O)N3CCC[C@H]3C(=O)O)NC(=O)[C@H](CCCNC(=N)N)NC(=O)[C@H](C)NC2=O)[C@@H](C)O)NC(=O)[C@H](Cc2c[nH]c3ccccc23)NC1=O (H-RCQGLWCFTSNKYCARCP-OH; linker 2-7, 14-17 via CH2COCH2)",–,3.2,–
0.9 nM,CC[C@H](C)[C@@H]1NC(=O)[C@H](CCCNC(=N)N)NC(=O)[C@H]([C@@H](C)O)NC(=O)[C@H](CC(C)C)NC(=O)[C@H](C)NC(=O)[C@H](CO)NC(=O)[C@@H](NC(=O)[C@H](CCCNC(=N)N)NC(=O)[C@H](CCCNC(=N)N)NC(=O)[C@@H](NC(=O)[C@H](C)NC(=O)[C@H](CCCCN)NC(=O)[C@@H]2CSCc3cccc(n3)CSC[C@@H](NC(=O)[C@@H](N)CCC(N)=O)C(=O)N2)C(C)C)CSCc2cccc(n2)CSC[C@@H](C(=O)N2CCC[C@H]2C(=O)O)NC(=O)[C@H](C(C)C)NC1=O,2.9 µM,2.7,EC1.5 (Blood [6]): 12 µM; half-life at 40 µM [7]: 7.6 h; EC2 (Plasma [8]): 2 µM; Selectivity ratio (Homo sapiens [9]): > 1000; Selectivity ratio (Homo sapiens [10]): > 1000; Selectivity ratio (Homo sapiens [11]): > 1000; Selectivity ratio (Homo sapiens [12]): > 1000; Selectivity ratio (Homo sapiens [13]): > 1000; Selectivity ratio (Homo sapiens [14]): > 1000; Selectivity ratio (Homo sapiens [15]): > 1000
2.6 nM,CC[C@H](C)[C@@H]1NC(=O)[C@H](CCCNC(=N)N)NC(=O)[C@H]([C@@H](C)O)NC(=O)[C@H](CC(C)C)NC(=O)[C@H](C)NC(=O)[C@H](CO)NC(=O)[C@@H](NC(=O)[C@H](CCCNC(=N)N)NC(=O)[C@H](CCCNC(=N)N)NC(=O)[C@@H](NC(=O)[C@H](C)NC(=O)[C@H](CCCCN)NC(=O)[C@H](CO)NC(=O)[C@H](CO)NC(=O)[C@@H](N)CCC(N)=O)C(C)C)CSSC[C@@H](C(=O)N2CCC[C@H]2C(=O)O)NC(=O)[C@H](C(C)C)NC1=O (H-QSSKAVRRCSALTRIVCP-OH; disulfide 9-17),4.9 µM,–,–
260 nM,"CSCC[C@@H]1NC(=O)CNC(=O)[C@H](CCCNC(=N)N)NC(=O)[C@@H](NC(=O)CN)CSCC(=O)CSC[C@@H](C(=O)N[C@H](C(=O)N[C@@H](CCCNC(=N)N)C(=O)N[C@H](C(=O)N[C@@H](CO)C(=O)N2CCC[C@H]2C(=O)N[C@@H](Cc2ccccc2)C(=O)N[C@H]2CSCC(=O)CSC[C@@H](C(=O)N3CCC[C@H]3C(=O)O)NC(=O)[C@H](CCCNC(=N)N)NC(=O)[C@H](C)NC2=O)[C@@H](C)O)C(C)C)NC(=O)[C@H](CO)NC1=O (H-GCRGMSCVRTSPFCARCP-OH; linker 2-7, 14-17 via CH2COCH2)",–,2.4,–
72 nM,"CC[C@H](C)[C@@H]1NC(=O)[C@@H](NC(=O)[C@H](CCCNC(=N)N)NC(=O)[C@@H](NC(=O)[C@H](CC(C)C)NC(=O)[C@@H](NC(=O)[C@@H]2CSC/C=C/CSC[C@H](NC(=O)[C@@H](N)CO)C(=O)N[C@@H](CCC(=O)O)C(=O)N[C@@H]([C@@H](C)O)C(=O)N3CCC[C@H]3C(=O)N[C@@H](CCC(N)=O)C(=O)N[C@@H](C)C(=O)N2)[C@@H](C)O)[C@@H](C)O)CSC/C=C/CSC[C@@H](C(=O)N[C@@H](CC(N)=O)C(=O)O)NC(=O)[C@H](CCC(N)=O)NC(=O)[C@H]([C@@H](C)O)NC1=O (H-SCETPQACTLTRCITQCN-OH; linker 2-8, 13-17 via X1)",–,1.7,–
100 nM,CSCC[C@H](NC(=O)[C@H](CO)NC(=O)[C@@H](NC(=O)[C@H](CCCNC(=N)N)NC(=O)[C@H](CCC(N)=O)NC(=O)[C@H](CCC(N)=O)NC(=O)[C@@H]1CSCC(=O)CSC[C@H](NC(=O)[C@@H](N)CC(C)C)C(=O)N[C@@H](CO)C(=O)N[C@@H](CO)C(=O)N2CCC[C@H]2C(=O)N[C@@H](CO)C(=O)N1)[C@@H](C)O)C(=O)N[C@H]1CSCC(=O)CSC[C@H](C(=O)N2CCC[C@H]2C(=O)O)NC(=O)[C@H](CCCNC(=N)N)NC(=O)[C@H](Cc2ccc(O)cc2)NC1=O,–,1.9,–
31 nM,"CC(C)C[C@@H]1NC(=O)[C@H](CCC(N)=O)NC(=O)[C@@H]2CCCN2C(=O)[C@@H](NC(=O)[C@@H](N)CO)CSC/C=C/CSC[C@@H](C(=O)N[C@@H](CO)C(=O)N[C@@H](CCCNC(=N)N)C(=O)N[C@H](C(=O)N[C@@H](CCCNC(=N)N)C(=O)N[C@H]2CSC/C=C/CSC[C@@H](C(=O)N[C@@H](CO)C(=O)O)NC(=O)[C@H](CC(=O)O)NC(=O)[C@H](CC(C)C)NC(=O)[C@H](C(C)C)NC2=O)[C@@H](C)O)NC(=O)[C@H](Cc2ccc(O)cc2)NC(=O)[C@H](CCC(=O)O)NC1=O (H-SCPQLEYCSRTRCVLDCS-OH; linker 2-8, 13-17 via X1)",–,1.6,–
270 nM,CC(C)[C@@H]1NC(=O)[C@H](CCCNC(=N)N)NC(=O)[C@H](C)NC(=O)[C@H](CC(N)=O)NC(=O)[C@H](CO)NC(=O)[C@@H](NC(=O)[C@H](CO)NC(=O)CNC(=O)[C@H](CCC(N)=O)NC(=O)[C@H](C)NC(=O)[C@H](CCCNC(=N)N)NC(=O)[C@H](CCCNC(=N)N)NC(=O)[C@@H]2CSCc3cccc(n3)CSC[C@@H](NC(=O)[C@@H](N)CO)C(=O)N2)CSCc2cccc(n2)CSC[C@@H](C(=O)N[C@@H](Cc2cnc[nH]2)C(=O)O)NC(=O)[C@H](C(C)C)NC1=O,–,1.9,–
